Tests used:
[1] = system: C57BL/6 mice; experiment: mouse warm water tail withdrawal; format: in vivo
[2] = biological target: mu opioid receptor (MOR) (Rattus norvegicus, UniProt P33535); experiment: [3H]diprenorphine competitive displacement binding, C6-MOR membranes
[3] = biological target: delta opioid receptor (DOR) (Rattus norvegicus, UniProt P33533); experiment: antagonism of DPDPE-stimulated GTPγS binding at DOR; format: biochemical
Chain of delta opioid receptor (DOR) (P33533 whole entry): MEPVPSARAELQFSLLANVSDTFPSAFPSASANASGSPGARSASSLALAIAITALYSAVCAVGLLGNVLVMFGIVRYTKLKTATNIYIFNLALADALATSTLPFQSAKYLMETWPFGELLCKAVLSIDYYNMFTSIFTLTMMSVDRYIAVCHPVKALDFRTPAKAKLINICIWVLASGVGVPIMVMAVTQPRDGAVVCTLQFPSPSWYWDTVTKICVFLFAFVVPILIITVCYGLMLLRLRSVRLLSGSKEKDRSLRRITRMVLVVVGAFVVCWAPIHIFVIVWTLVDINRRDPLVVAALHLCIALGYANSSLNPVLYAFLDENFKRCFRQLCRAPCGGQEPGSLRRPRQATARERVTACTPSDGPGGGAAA

Chain of mu opioid receptor (MOR) (P33535 whole entry): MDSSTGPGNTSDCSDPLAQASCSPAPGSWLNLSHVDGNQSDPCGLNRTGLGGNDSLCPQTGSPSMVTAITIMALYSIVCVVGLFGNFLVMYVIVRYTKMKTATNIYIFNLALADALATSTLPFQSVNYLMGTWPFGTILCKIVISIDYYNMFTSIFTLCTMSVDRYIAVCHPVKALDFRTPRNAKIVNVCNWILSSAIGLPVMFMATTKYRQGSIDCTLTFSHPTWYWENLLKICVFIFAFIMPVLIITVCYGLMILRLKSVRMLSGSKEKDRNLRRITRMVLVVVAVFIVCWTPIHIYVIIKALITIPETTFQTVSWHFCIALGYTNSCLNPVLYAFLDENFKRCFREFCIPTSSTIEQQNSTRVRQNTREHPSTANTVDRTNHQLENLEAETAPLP

Cc1cc(O)cc(C)c1C[C@H](N)C(=O)N[C@@H]1CCNc2ccc(Cc3ccccc3)cc21 [1 (4R)]
ED50 ([1]; Mus musculus, ip, read-out: ED50, tail withdrawal latency): ~6 µmol/kg
antinociceptive potency compared with morphine ([1]; mouse WWTW after intraperitoneal administration): approximately equipotent to morphine
time maximal antinociception is maintained ([1]; mouse WWTW time course, 10 mg/kg ip): approximately 60 minutes
effect of naltrexone pretreatment on dose/response curve ([1]; naltrexone 1mg/kg ip, 30 min pretreatment, mouse WWTW): rightward shift

Cc1cc(O)cc(C)c1C[C@H](N)C(=O)N[C@@H]1CCNc2ccc(Cc3cccc4ccccc34)cc21 [Compound 15b, (2S)-2-Amino-3-(4-hydroxy-2,6-dimethylphenyl)-N-(6-(naphthalen-1-ylmethyl)-1,2,3,4-tetrahydroquinolin-4-yl)propanamide]
Ki [2]: 0.76 ± 0.14 nM

Cc1cc(O)cc(C)c1C[C@H](N)C(=O)NC1CCNc2ccc(Cc3ccc4ccccc4c3)cc21 (stereo partly drawn) [Compound 15c, (2S)-2-Amino-3-(4-hydroxy-2,6-dimethylphenyl)-N-(6-(naphthalen-2-ylmethyl)-1,2,3,4-tetrahydroquinolin-4-yl)propanamide]
Kb [3]: 34.3 nM

Source: publication PMC3618660 (Journal of medicinal chemistry, 2013)
